Assay results: article PMC9916658, “Design and Synthesis of New Quinazolin-4-one Derivatives with Negative mGlu7 Receptor Modulation Activity and Antipsychotic-Like Properties” (International Journal of Molecular Sciences, 2023)

Legend:
Format in all cases: cell-based
[1] = target: T1, recombinant human mGlu7 receptor (Homo sapiens, UniProt Q14831); test: NAM mGlu7 activity, forskolin-induced cAMP (HTRF) in T-REx 293 cell line; conditions: forskolin-stimulated cAMP response, 5 µM LSP4-2022 (EC80), T-REx 293 human mGlu7; for inhibition at 10 µM: T-REx-293, 10 μM compound
T1 construct: expressed in transfected cells; host or cells: T-REx 293 (tetracycline-inducible)
T1 sequence (Q14831 35-915): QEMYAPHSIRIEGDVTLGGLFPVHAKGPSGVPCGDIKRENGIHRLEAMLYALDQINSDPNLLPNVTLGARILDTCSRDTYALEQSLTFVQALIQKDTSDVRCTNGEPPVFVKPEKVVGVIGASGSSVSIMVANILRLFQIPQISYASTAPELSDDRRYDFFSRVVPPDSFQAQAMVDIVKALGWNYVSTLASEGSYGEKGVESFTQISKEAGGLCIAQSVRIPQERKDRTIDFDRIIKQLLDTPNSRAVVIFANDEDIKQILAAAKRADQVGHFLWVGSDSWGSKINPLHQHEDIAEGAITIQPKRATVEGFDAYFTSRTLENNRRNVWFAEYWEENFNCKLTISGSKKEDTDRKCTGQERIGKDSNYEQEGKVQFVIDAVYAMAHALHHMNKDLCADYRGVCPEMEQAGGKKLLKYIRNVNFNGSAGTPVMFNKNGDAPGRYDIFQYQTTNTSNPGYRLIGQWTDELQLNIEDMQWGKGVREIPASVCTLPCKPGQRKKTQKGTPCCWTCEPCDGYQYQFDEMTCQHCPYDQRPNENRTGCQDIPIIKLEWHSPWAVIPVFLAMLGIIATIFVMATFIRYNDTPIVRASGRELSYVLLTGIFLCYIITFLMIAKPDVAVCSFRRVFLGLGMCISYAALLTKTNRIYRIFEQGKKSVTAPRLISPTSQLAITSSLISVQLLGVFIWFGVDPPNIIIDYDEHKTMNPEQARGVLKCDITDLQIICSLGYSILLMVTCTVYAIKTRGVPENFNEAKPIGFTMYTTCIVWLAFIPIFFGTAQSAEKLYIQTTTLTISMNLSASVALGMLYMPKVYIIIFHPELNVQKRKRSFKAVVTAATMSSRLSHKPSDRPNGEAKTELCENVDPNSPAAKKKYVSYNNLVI
Protocol: The cell lines with the tetracycline-inducible expression of human metabotropic receptors 4, 7, and 8 were described in detail by Chruścicka et al. (mGlu4 receptor NM_000841, mGlu7 receptor NM_000844.2, and mGlu8 receptor NM_000845). Cells were grown under standard cell culture conditions (37 °C, 5% CO2) in DMEM supplemented with 10% tetracycline-free FBS. The expression was induced through the addition of tetracycline to the culture medium at 0.75 μg/mL.
The determination of the intracellular cAMP through homogeneous time-resolved fluorescence (HTRF) was described in detail previously. Briefly, 48 h before the experiments, the expression of the receptor was induced through the addition of tetracycline to the culture medium; the next day, FBS and L-Glu were removed from the medium. Just before the cAMP measurement, the cells were detached and centrifuged. Then, the cell suspension in Hanks-HEPES (130 mM NaCl, 5.4 mM KCl, 1.8 mM CaCl2, 0.8 mM MgSO4, 0.9 mM NaH2PO4, 20 mM HEPES, and 3.25 mM glucose; pH 7.4) was incubated in the presence of 10 µM forskolin (mGlu7 receptor, 3 µM forskolin), the agonist LSP4-2022 or L-Glu (for mGlu4 and mGlu8), and a compound for 5 min. The intracellular concentration of cyclic AMP was measured by means of a cAMP Gi HTRF kit from Cisbio, according to the manufacturer’s instructions. After 1 h of incubation at room temperature, the fluorescence at 620 nm and 665 nm was read (Tecan Infinite M1000). The results were calculated as the 665 nm/620 nm ratio multiplied by 10^4. Each sample was prepared in triplicate. Data were analyzed using GraphPad Prism version 5.04 for Windows (GraphPad Software, San Diego, USA).
The activity of the compounds was examined in the T-REx 293-cell-line-expressing recombinant human mGlu7 receptor by detecting the level of cyclic AMP in the presence of 5 µM forskolin [7, 41]. […] The substances were incubated with 5 µM LSP4-2022 (EC80).
Firstly, all compounds were screened at 10 μM using three cell lines expressing the mGlu4/7/8 receptor to evaluate selectivity. For the mGlu4 and mGlu8 receptors, glutamic acid was used as an agonist and had good potency. […] VU0155041 and AZ12216052 were used as reference compounds for the mGlu4 and mGlu8 receptors, respectively. The parameter described as “% of inhibition” was introduced to compare the bioactivity of the new compounds to the reference NAM at a 10 μM concentration in the presence of 5 μM LSP4-2022 (0%) and 3 μM forskolin (100%). […] For compounds that passed the screening procedure, the dose–response curve in the presence of LSP4-2022 in 5 μM was evaluated compared to reference NAM ADX71743. Only compounds ALX-063, ALX-065, and ALX-171 (Figure S3, Supplementary Materials) met our conditions regarding bioactivity. All of them were further investigated to determine the EC50 and receptor selectivity. […]
2.1. NAM mGlu7 receptor activity on T-Rex 293 cell line
The activity of compounds was examined on T-REx 293 cell line expressing recombinant human mGlu7 receptor by detecting the level of cyclic AMP in the presence of 5 µM forskolin [14,15]. The cell line was […]
incubated with 5 µM of LSP4-2022 (EC80).

[2] = target: T2, recombinant human mGlu7 receptor (FAST-0154C) (Homo sapiens, UniProt Q14831); test: NAM mGlu7 activity on CHO-K1 cell line, cAMP HTRF (EuroscreenFast protocol); conditions: CHO-K1 human mGlu7, agonist L-AP4 at EC80; for % inhibition at maximal concentration: range 1 nM – 25 µM; for IC50: read-out: IC50 (CHO-K1, Figure S4)
T2 construct: host or cells: CHO-K1
T2 sequence (Q14831 35-915): as above
Excerpt: with inducible expression of human mGlu7 receptor. […]
2.2. NAM mGlu7 receptor activity on CHO-K1 cell line according to EuroscreenFast protocol
ALX-065 and ALX-171 were testing for negative allosteric modulator (NAM) activity on alternative […]
mGlu7 cell line (recombinant human mGlu7 receptor (FAST-0154C) using cAMP HTRF functional assay) […]
by EuroscreenFast company according to the provided methodology.
Receptor Accession Cell line Reference Reference
Number agonist antagonist
Compounds were tested for NAM activity at the human mGlu7 receptor (FAST-0154C) in dose […]
response and in duplicates (range concentration: 1 nM – 25 µM) […]
cAMP HTRF assay for Gi coupled receptor
CHO-K1 cells expressing recombinant human mGlu7 receptor (FAST-0154C) grown prior to the test […]
inmedia without antibiotic are detached by gentle flushing with PBS-EDTA (5 mM EDTA), recovered […]
by centrifugation and resuspended in assay buffer (KRH: 5 mM KCl, 1.25 mM MgSO4, 124 mM NaCl, […]
25 mM HEPES, 13.3 mM Glucose, 1.25 mM KH2PO4, 1.45 mM CaCl2, 0.5 g/L BSA, supplemented with 1 […]
Dose response curves are performed in parallel with the reference compounds.
For antagonist/NAM test (96 well): 12 µl of cells are mixed with 6 µl of the test compound at increasing concentrations and then incubated 10 min. Thereafter 6 µl of the mix of the forskolin and reference agonist is added at a final concentration corresponding to the historical EC80. The plates are then incubated for 30 min at room temperature. After addition of the lysis buffer and 1 hour incubation, cAMP concentrations are estimated, according to the manufacturer specification, with the HTRF kit. […]

mock T-REx 293 cell line = test: Off-target T-REx screening, forskolin-induced cAMP in untransfected cells
Excerpt: Off-target (T-Rex screening)
Figure S5. Activity of compounds ALX-065 and ALX-171 in forskolin-induced cAMP accumulation in
untransfected cells of the T-REx 293 line. Similar to reference mGlu7 receptor ADX71743, no effects of the tested […]

SMILES	inhibition at 10 µM [1] [%]	% inhibition at maximal concentration [2] [%]	IC50 [2] [µM]	effect on forskolin-induced cAMP accumulation in untransfected cells (mock T-REx 293 cell line)	Inhibition (%) ([1]; 10 μM compound)
CCc1nc2c(o1)CC(c1ccc(C)cc1C)CC2=O (stereo not shown) [ADX71743, reference compound]	42.6	62.42	0.43	no effects	
Cn1c(-c2ccccc2Cl)nc2ccc(-c3ccccc3)cc2c1=O [ALX-065, 2-(2-chlorophenyl)-3-methyl-6-phenylquinazolin-4(3H)-one]	26.5 ± 11.8	99.62	3.74	no effects	
COc1cccc(-c2ccc3nc(-c4ccccc4Cl)n(C)c(=O)c3c2)c1OC [ALX-171, 2-(2-chlorophenyl)-6-(2,3-dimethoxyphenyl)-3-methylquinazolin-4(3H)-one]	30.8 ± 6.44	105.21	5.6	no effects	30.8 ± 6.44
